Assay [1] in a line: oral biological activity: % uterine weight increase compared to vehicle. Format: in vivo, rat. The note with it: for change in vivo at 0.03 mg / change in vivo at 0.01 mg: Rattus norvegicus, oral; for change in vivo at 0.03 mg: 30.0 μg; for change in vivo at 0.01 mg: 10.0 μg. On the procedure:
Exemplary compounds were tested for: oral biological activity (Table 1); binding to human carbonic anhydrase II (hCA 2) (Table 2); and, for some compounds enzymatic saponification (Table 3).

Assay [2] deals with human carbonic anhydrase II (hCA 2) (Homo sapiens, UniProt P00918). In words: Human Carbonic Anhydrase II inhibition. Format: biochemical.

Where two headings read alike, the source gives them in different places. Some results are limits rather than exact numbers.

Broadly, the IC50 is the midpoint of a concentration-inhibition curve. For the molecule `C[C@]12CCC3c4ccc(O)cc4CCC3C1CC[C@@H]2OC(=O)c1cccc(S(N)(=O)=O)c1` (stereo partly drawn) [Compound 1A, (13S, 17S)-3-hydroxy-13-methyl-7,8,9,11,12,13,14,15,16,17-decahydro-6H-cyclopenta[a]phenanthren-17-yl 3-sulfamoylbenzoate, reference compound], the change in vivo at 0.03 mg in assay [1] stood at 212%. For the same molecule, in assay [2] (read-out: hCAII (IC50 nM)), the IC50 came out at 258 nM.

As to `C[C@]12CCC3c4ccc(O)cc4CCC3C1CC[C@@H]2OC(=O)COC(=O)c1cccc(S(N)(=O)=O)c1` (stereo partly drawn) [Compound 2A, 2-((13S,17S)-3-hydroxy-13-methyl-7,8,9,11,12,13,14,15,16,17-decahydro-6H-cyclopenta[a]phenanthren-17-yloxy)-2-oxoethyl 3-sulfamoylbenzoate], the IC50 in assay [2] (read-out: hCAII (IC50 nM)) amounted to 3500 nM. In turn, `C[C@]12CCC3c4ccc(O)cc4CCC3C1CC[C@@H]2OC(=O)COC(=O)c1ccc(S(N)(=O)=O)cc1` (stereo partly drawn) [Compound 3A, 2-((13S,17S)-3-hydroxy-13-methyl-7,8,9,11,12,13,14,15,16,17-decahydro-6H-cyclopenta[a]phenanthren-17-yloxy)-2-oxoethyl 4-sulfamoylbenzoate] registered a change in vivo at 0.03 mg in assay [1] of 197%. In assay [2] (read-out: hCAII (IC50 nM)), the IC50 is 250 nM. Regarding `C[C@]12CCC3c4ccc(O)cc4CCC3C1CC[C@@H]2OC(=O)/C=C/C(=O)NCc1ccc(S(N)(=O)=O)cc1` (stereo partly drawn) [Compound 4A], in assay [1], the change in vivo at 0.03 mg turned out to be 164%. In assay [2] (read-out: hCAII (IC50 nM)), the half-inhibitory concentration (IC50) was 450 nM. Take `C[C@]12CCC3c4ccc(O)cc4CCC3C1CC[C@@H]2OC(=O)CNC(=O)c1cccc(S(N)(=O)=O)c1` (stereo partly drawn) [Compound 5A, (13S,17S)-3-hydroxy-13-methyl-7,8,9,11,12,13,14,15,16,17-decahydro-6H-cyclopenta[a]phenanthren-17-yl 2-(3-sulfamoylbenzamido)-acetate]: the change in vivo at 0.03 mg in assay [1] stood at 171%. Besides, in assay [2] (read-out: hCAII (IC50 nM)), the IC50 came to 42 nM. `C[C@]12CCC3c4ccc(O)cc4CCC3C1CC[C@@H]2OC(=O)CNC(=O)c1ccc(S(N)(=O)=O)cc1` (stereo partly drawn) [Compound 6A, (13S,17S)-3-hydroxy-13-methyl-7,8,9,11,12,13,14,15,16,17-decahydro-6H-cyclopenta[a]phenanthren-17-yl 2-(4-sulfamoylbenzamido)acetate]: the change in vivo at 0.01 mg in assay [1] was determined as 152%. In addition, in assay [2] (read-out: hCAII (IC50 nM)), the IC50 came to 65 nM. With `C[C@]12CCC3c4ccc(O)cc4CCC3C1CC[C@@H]2OC(=O)[C@@H]1CCCN1C(=O)c1cccc(S(N)(=O)=O)c1` (stereo partly drawn) [Compound 7A, (2S)-((13S,17S)-3-hydroxy-13-methyl-7,8,9,11,12,13,14,15,16,17-decahydro-6H-cyclopenta[a]-phenanthren-17-yl) 1-(3-sulfamoylbenzoyl)pyrrolidine-2-carboxylate], the change in vivo at 0.01 mg in assay [1] turned out to be 108%. In addition, in assay [2] (read-out: hCAII (IC50 nM)), the concentration for half-maximal inhibition (IC50) turned out to be 300 nM. On to `C[C@]12CCC3c4ccc(O)cc4CCC3C1CC[C@@H]2OC(=O)C(F)(F)S(N)(=O)=O` (stereo partly drawn) [Compound 9A, (13S,17S)-3-hydroxy-13-methyl-7,8,9,11,12,13,14,15,16,17-decahydro-6H-cyclopenta[a]phenanthren-17-yl 2,2-difluoro-2-sulfamoylacetate], for which the change in vivo at 0.01 mg in assay [1] was 218%. For the same molecule, the 50% inhibitory concentration (IC50) in assay [2] (read-out: hCAII (IC50 nM)) worked out at 85 nM. On the same counts, the results for `C[C@]12CCC3c4ccc(O)cc4CCC3C1CC[C@@H]2OC(=O)CS(N)(=O)=O` (stereo partly drawn) [Compound 10A, (13S,17S)-3-hydroxy-13-methyl-7,8,9,11,12,13,14,15,16,17-decahydro-6H-cyclopenta[a]phenanthren-17-yl 2-sulfamoylacetate] are 177% and 510 nM.

In turn, `C[C@H](NC(=O)c1cccc(S(N)(=O)=O)c1)C(=O)O[C@H]1CCC2C3CCc4cc(O)ccc4C3CC[C@@]21C` (stereo partly drawn) [Compound 11A, (2S)-((13S,17S)-3-hydroxy-13-methyl-7,8,9,11,12,13,14,15,16,17-decahydro-6H-cyclopenta[a]-phenanthren-17-yl) 2-(3-sulfamoylbenzamido)propanoate] came in with a change in vivo at 0.01 mg in assay [1] of 170%. Further, in assay [2] (read-out: hCAII (IC50 nM)), the 50% inhibitory concentration (IC50) stood at 310 nM. For `C[C@H](NC(=O)c1ccc(S(N)(=O)=O)cc1)C(=O)O[C@H]1CCC2C3CCc4cc(O)ccc4C3CC[C@@]21C` (stereo partly drawn) [Compound 12A, (2S)-((13S,17S)-3-hydroxy-13-methyl-7,8,9,11,12,13,14,15,16,17-decahydro-6H-cyclopenta[a]-phenanthren-17-yl) 2-(4-sulfamoylbenzamido)propanoate], the change in vivo at 0.03 mg in assay [1] stood at 271%. The same molecule had an IC50 in assay [2] of 250 nM. Consider `C[C@]12CCC3c4ccc(O)cc4CCC3C1CC[C@@H]2OC(=O)CN(Cc1cccc(S(N)(=O)=O)c1)Cc1cccc(S(N)(=O)=O)c1` (stereo partly drawn) [Compound 13A, (13S,17S)-3-hydroxy-13-methyl-7,8,9,11,12,13,14,15,16,17-decahydro-6H-cyclopenta[a]phenanthren-17-yl 2-(bis(3-sulfamoylbenzyl)amino)acetate], for which the change in vivo at 0.03 mg in assay [1] amounted to 136%. Also, in assay [2] (read-out: hCAII (IC50 nM)), the IC50 was found to be 500 nM. For `C[C@]12CCC3c4ccc(O)cc4CCC3C1CC[C@@H]2OC(=O)CNCc1cccc(S(N)(=O)=O)c1` (stereo partly drawn) [Compound 14A, (13S,17S)-3-hydroxy-13-methyl-7,8,9,11,12,13,14,15,16,17-decahydro-6H-cyclopenta[a]phenanthren-17-yl 2-(3-sulfamoylbenzylamino)acetate], in that order: 187% and 450 nM. On the same counts, the results for `C[C@]12CCC3c4ccc(O)cc4CCC3C1CC[C@@H]2OC(=O)COc1ccc(S(N)(=O)=O)cc1` (stereo partly drawn) [Compound 15A, (13S,17S)-3-hydroxy-13-methyl-7,8,9,11,12,13,14,15,16,17-decahydro-6H-cyclopenta[a]phenanthren-17-yl 2-(4-sulfamoylphenoxy)acetate] are 152% and 105 nM.

On to `C[C@]12CCC3c4ccc(O)cc4CCC3C1CC[C@@H]2OC(=O)C1(S(N)(=O)=O)CC1` (stereo partly drawn) [Compound 16A, (13S,17S)-3-hydroxy-13-methyl-7,8,9,11,12,13,14,15,16,17-decahydro-6H-cyclopenta[a]phenanthren-17-yl 1-sulfamoylcyclopropanecarboxylate], for which the change in vivo at 0.03 mg in assay [1] was 314%. Further, the oral activity result in assay [1] (oral dose, comparison in words) is “comparable high oral activity”. In assay [2] (read-out: hCAII (IC50 nM)), the IC50 is above 10000 nM. `C[C@]12CCC3c4ccc(O)cc4CCC3C1CC[C@@H]2OC(=O)COCc1ccc(S(N)(=O)=O)cc1` (stereo partly drawn) [Compound 17A, (13S,17S)-3-hydroxy-13-methyl-7,8,9,11,12,13,14,15,16,17-decahydro-6H-cyclopenta[a]phenanthren-17-yl 2-(4-sulfamoylbenzyloxy)acetate]: in assay [1], the change in vivo at 0.03 mg worked out at 133%. Besides, the half-inhibitory concentration (IC50) in assay [2] (read-out: hCAII (IC50 nM)) is 125 nM.

In assay [1], `C[C@@H](C(=O)O[C@H]1CCC2C3CCc4cc(O)ccc4C3CC[C@@]21C)N(C)C(=O)c1ccc(S(N)(=O)=O)cc1` (stereo partly drawn) [Compound 18A, [(13S,17S)-3-hydroxy-13-methyl-6,7,8,9,11,12,14,15,16,17-decahydrocyclopenta[a]phenanthren-17-yl](2S)-2-[methyl-(4-sulfamoylbenzoyl)amino]propanoate] returned a change in vivo at 0.01 mg of 209%. In assay [2], this molecule came in with an IC50 of 203 nM. Molecule `C[C@]12CC[C@@H]3c4ccc(O)cc4CC[C@H]3[C@@H]1CC[C@@H]2O` [Compound E2, estradiol, reference compound] came in with a change in vivo at 0.01 mg in assay [1] of 118%.

`C#C[C@]1(O)CC[C@H]2[C@@H]3CCc4cc(O)ccc4[C@H]3CC[C@@]21C` [EE, ethinyl estradiol, reference compound]: the change in vivo at 0.01 mg in assay [1] was 154%.

The values above are taken from patent US10273263B2, “Pro-drug forming compounds” (priority 2013, dated 2019).
